No end group written: not given here.
Assays:
RASMCs = assay: In vitro cell scratch assay (RASMC migration); type: cell-based, rat; conditions: 3 μM peptide
Procedure: RASMCs isolated from the thoracic aorta were cultured in DMEM supplemented with 0.1% (v/v) FBS (Contractile) or in DMEM supplemented with 10% (v/v) FBS (Synthetic) in the presence of 3 μM of control peptide (Con; SEQ ID NO: 23) or ψPLB-SE peptide (SEQ ID NO: 2). Alternatively, RASMC cultured in DMEM supplemented with 0.1% (v/v) FBS were treated with 10 ng/ml of PDGF-BB (R&D Systems) (Synthetic) in the presence of 3 μM control or ψPLB-SE peptide. A region of the RASMC layer was removed by scratching the plate with a sterile 200 μL pipette tip. The cells were incubated for 12 hours or 24 hours and then observed under an 1×80 microscope (Olympus). The distance traveled by the cells was measured using MetaMorph software.

[1] = system: pulmonary arterial smooth muscle cells (PASMCs); assay: PASMC proliferation (PCNA western blotting, cell proliferation assay); type: cell-based; conditions: synthetic phenotype induction
Procedure: FIGS. 19a and 19b. […] (19a) Protein expression was quantitatively analyzed through western blotting using antibodies against PCNA and GAPDH 12 and 24 hours after the treatment. (19b) Cell proliferation assay was performed using EZ-CyTox cell viability assay kit.
The rat aortic smooth muscle cells (RASMCs) were isolated from the medial layer of the thoracic aorta derived from male Sprague-Dawley rats (body weight, 180-200 g) by an enzymatic reaction with collagenase (50 U/mL, Worthington) and pancreatic elastase (0.25 mg/mL, Sigma-Aldrich) for 4 hours at 37. The cells were collected and resuspended in DMEM containing 20% (v/v) fetal bovine serum. The resuspension was then plated on collagen I (Sigma-Aldrich)-coated glass coverslips and incubated at 37 in an atmosphere of 5% (v/v) CO2 and 95% (v/v) air. Human coronary smooth muscle cells (HCSMCs), pulmonary arterial endothelial cells (PAECs), and pulmonary arterial smooth muscle cells (PASMCs) were purchased from Lonza and cultured in EBM or SmBM (Lonza) supplemented with 0.5 mg/mL hEGF, […], 1 mg/mL hFGF, […] gentamicin/amphotericin-B, and 5% fetal bovine serum. […]
Vascular smooth muscle cells (VSMCs) were homogenized in a minimal volume of 50 mM Tris-HCl, pH 7.4, supplemented with a broad-spectrum protease inhibitor cocktail (Calbiochem). […] The blots were scanned and quantified using LAS software.

PLB = PLB phosphorylation in RASMCs (western blotting); type: cell-based, rat
Procedure: FIG. 7. ψPLB-SE attenuates PLB dephosphorylation in VSMCs. The proteins samples shown in FIG. 2C were subjected to western blotting. Antibodies against PLB or phospho-PLB were used. Data are expressed as the means±SD (n=3-4; *, P<0.05).
(§1) Vascular smooth muscle cells (VSMCs) were homogenized in a minimal volume of 50 mM Tris-HCl, pH 7.4, supplemented with a broad-spectrum protease inhibitor cocktail (Calbiochem). The proteins were separated by SDS-PAGE and then transferred to polyvinylidene fluoride membranes (Schleicher & Schuell). After blocking with 5% (w/v) non-fat milk for 1 hour and washing with TBST, the membranes were incubated with antibodies against SERCA2a, SERCA2b (21st century biochemical), PCNA (abcam), GAPDH (Sigma-Aldrich), phospho-eNOS, eNOS, phospho-eIF2α, eIF2α (cell signaling), Vimentin, α-SMA, BMPR2 (Santa cruz), phospho-Akt, Akt (cell signaling), phospho-phospholamban (Merck), and Phospholamban (cell signaling). The membranes were then incubated with horseradish peroxidase-conjugated secondary antibodies (Jackson ImmunoResearch, West Grove, Pa., USA) and developed using a chemiluminescent substrate (Dogen). The blots were scanned and quantified using LAS software.

SERCA2a = assay: Aorta ex vivo organ culture, SERCA2a western blotting; type: cell-based; conditions: ex vivo culture of rat thoracic aorta, injury by scratching
Procedure: A rat thoracic aorta was harvested and incubated in RPMI-1640 medium containing 20 mM HEPES, 2 mM L-glutamine, 100 IU/mL penicillin, and 100 μg/mL streptomycin. The adventitia was removed, and the aorta was cut longitudinally and fixed onto a resin. To investigate the degradation of SERCA2a, tissue fragments were cultured for 7-10 days in RPMI-1640 medium containing 20% (v/v) FCS. The medium was replaced every 48 hours.
as §1

Sequence: RAETIEMPQ (not fully specified) [ψPLB-SE, 9-mer PP1 decoy peptide mimicking phosphorylated PLB; conjugated via GGG linker to cell penetrating peptide dNP2 or TAT]
- increased migratory activity of RASMCs (RASMCs; synthetic conditions (10% FBS)): inhibited
- increased migratory activity of RASMCs (RASMCs; treatment with PDGF-BB 10 ng/ml): inhibited
- cell proliferation (cell proliferation assay) [1]: inhibiting cell proliferation
- expression of PCNA [1]: attenuated
- dephosphorylation of PLB (PLB): inhibited
- injury-dependent reduction of SERCA2a in VSMCs (SERCA2a): completely inhibited

Source: patent US11426441B2, “Composition comprising protein phosphatase 1 inhibitory peptide for treating vascular diseases” (BethphaGen Inc., priority 2016, dated 2022)
